These results are taken from patent US20120157402A1, “METHODS FOR TREATING BRAIN TUMORS” (priority 2009, published 2012).

Read-outs that look alike come from different tables or passages of the source. Marks after values point to notes of the source that are not given here.

Data set [1] can be described thus: Phase 1 multiple-dose study in healthy volunteers: pharmacokinetics (Table 28). Format: in vivo. The conditions noted are these: human, plasma, oral; for concentration at 24 h: 24 hours after first daily dose, read-out: C24 h; for AUC(0-t): read-out: AUC0-24; for Cmax: read-out: Cmax (after PM dose). Here is the method:
The study was performed under the oversight of the French health authorities. The study was not performed under an IND.
Methods. The trial was a Phase 1, randomized, escalating multiple dose, single center study conducted in 2 stages.
Capsules contained 2 mg or 20 mg of active substance.
Capsules contained 20 mg or 25 mg of active substance.
Noncompartmental methods were used to compute Tmax, Cmax, and AUC. Dose proportionality and sex effect were evaluated using ANOVA on log transformed PK parameters using dose, sex, and dose by sex as fixed factors.

Data set [2] in a line: in vivo. The following applies: Sprague Dawley, rat.
Experimental: (§4) The L23 vehicle was used. […] All studies in the toxicology program were conducted according to GLP regulations.
Data set [3] in a line: 7-day oral toxicity study in rats. The conditions noted are these: Sprague Dawley, rat, in vivo. Here is the method: (§1) The L23 vehicle was used.
Maximal exposures occurred at a dose of 120 mg/kg/day.

The nature of data set [4]: Single-dose oral toxicity study in rats. The conditions noted are these: Sprague Dawley, rat, in vivo, single oral gavage, read-out: NOAEL for 1 day of dosing. On the procedure:
as §1
Because maximal exposure occurred at 100 mg/kg, this dose is considered the NOAEL for 1 day of dosing.

Data set [5] is described as follows: Oral pharmacokinetics in mice. The following applies: mouse, plasma, 1-mg/kg dose level, Day 1, read-out: Plasma trough concentration at 24 hours (minimal mean target plasma concentration). Type of data set: in vivo. On the procedure: The pharmacokinetic evaluations in mice were adjuncts to the primary pharmacodynamic xenograft studies. The evaluations in rats included toxicokinetic assessments in single-dose, 7-day, and 28-day toxicology studies as well as a mass-balance study after a single oral dose of ^14C-Compound #10. The evaluations in dogs included toxicokinetic assessments in 7-day and 28-day toxicology studies. In the studies performed, rodents were dosed once daily with Compound #10 formulated in vehicle and administered via oral gavage.

Data set [6] in a line: in vivo. The conditions noted are these: beagle, dog.
Experimental: as §4
Data set [7] is described as follows: Trough plasma concentrations of Compound #10 in HT1080 xenograft mice (HPLC-MS/MS). Format: in vivo. The conditions noted are these: athymic nude, mouse, oral, 1 mg/kg BID.
Data set [8] is described as follows: in vivo. The conditions noted are these: both, beagle, dog.
Experimental: as §4
Data set [9] deals with HT1080 xenografts. Description: Tumor growth in nude mice bearing HT1080 xenografts. Type of data set: in vivo, athymic nude mice. Here is the method: (§2) In all of these experiments, HT1080 cells (5×10^6 cells/mouse) were implanted subcutaneously in male athymic nude mice. When tumors had become established, mice were divided into groups (10 mice/group). […] Tumor size was measured by calipers at the beginning and end of treatment. At the completion of Compound administration, the mice were sacrificed, and excised tumors were assayed by ELISA for intratumoral VEGF or other angiogenic factors using methods analogous to those described in Section 9.1.1.1.
Experimental Study Design. HT1080 cells (5×10^6 cells/mouse) were implanted subcutaneously in male athymic nude mice.
Tumor size was measured using calipers at periodic intervals during the study (data shown in Section 9.2.2). […] The study was ended after 18 days, when the vehicle treated tumors reached a mean volume of ˜1755 mm^3. […] Mice were sacrificed, and excised tumors were homogenized in buffer containing protease inhibitors. Both terminal intratumoral and pathologic plasma human VEGF levels were measured using an ELISA that recognizes human VEGF121 and VEGF165 (as described in Section 9.1.1.1). Intratumoral VEGF levels were normalized to the total tumor protein concentration, while pathologic plasma human VEGF levels were expressed in pg/mL of plasma.
Experimental Design. HT1080 cells (5×10^6 cells/mice) were implanted subcutaneously into male athymic nude mice. Treatment with vehicle alone or Compound 1205 was initiated when the median tumor volume was approximately 311±88 mm^3. Table 7 and Table 9 (study design #21 and #23) provide the study design for assessing tumor and plasma pathologic VEGF concentrations—each group in each study included eight (8) mice. When the tumors in vehicle-treated mice had reached the target size of ˜1200 mm^3 for study #21 and ˜1500 mm^3 for study #23, all mice in the study were sacrificed, and excised tumors were homogenized in buffer containing protease inhibitors. Both intra-tumor and pathologic plasma human VEGF levels were measured using an ELISA that recognizes human VEGF121 and VEGF165. Intra-tumor VEGF levels were normalized to the total tumor protein concentration and pathologic plasma VEGF levels were expressed in pg/mL. Because smaller tumors produce less VEGF per mg of tumor protein, intra-tumor VEGF levels were normalized to tumor size.
Experimental Design. HT1080 cells (5×10^6 cells/mouse) were implanted subcutaneously in male athymic nude mice. […] For comparison, Compound #10 was included in this study.
(§3) Experimental Design. HT1080 cells (5×10^6 cells/mouse) were implanted subcutaneously in male athymic nude mice.
Tumor size was measured by calipers immediately pre-treatment and at the time of sacrifice on Day 1, 2, or 3 (5 mice per group per day). At sacrifice, the plasma was collected for assay of pathologic human VEGF concentration using an ELISA that recognizes human VEGF121 and VEGF165 (as described in Section 9.1.1.1).

In a further data set the test system is D245MG-PR cells. Description: D245MG-PR (procarbazine-resistant) lethality model of GBM, monotherapy and with temozolomide. Type of data set: in vivo, Balb/C nu/nu mice. The conditions noted are these: Cpd #10 10 mg/kg oral QD from Day 3; TMZ 250 mg/kg IP from Day 5 (control 70 days). On the procedure:
Forty (40) female Balb/C nu/nu mice at least 6 weeks of age but not more than 12 weeks at study initiation, weighing at study initiation 18-28 g, were implanted intracranially. D245MG-PR cells (procarbazine-resistant cells derived from an adult human GBM tumor) in a medium using a 25-gauge needle. Mice were anesthetized with Ketamine/Rompun cocktail prior to IC implantation. The day of tumor cell implantation was designated as Day 0. Animals were randomly assigned to treatment groups (10 mice per treatment group).
Mice in Group 1 were administered L21 vehicle alone orally once per day beginning on Day 3. […] Mice in Group 3 were administered 250 mg/kg TMZ intraperitoneally (IP) beginning on Day 5.
Body weights were measured the day that dosing was initiated and once a week thereafter. Observations were made on animals that died or were sacrificed at an unscheduled interval. Animals were sacrificed if moribund.

Data set [10] relates to human VEGF121 and VEGF165. Description: Intratumoral and plasma human VEGF (ELISA) in nude mice bearing HT1080 xenografts. Format: in vivo, athymic nude mice. The conditions noted are these: Day 1; Compound #10 10 mg/kg oral QD, doxorubicin 6 mg/kg IP, bevacizumab 5 mg/kg IP single bolus. Here is the method: as §2
Tumor size was measured using calipers at periodic intervals during the study (data shown in Section 9.2.2). […] The study was ended after 18 days, when the vehicle treated tumors reached a mean volume of ˜1755 mm^3. […] Mice were sacrificed, and excised tumors were homogenized in buffer containing protease inhibitors. Both terminal intratumoral and pathologic plasma human VEGF levels were measured using an ELISA that recognizes human VEGF121 and VEGF165 (as described in Section 9.1.1.1). […]
Experimental Design. […] Both intra-tumor and pathologic plasma human VEGF levels were measured using an ELISA that recognizes human VEGF121 and VEGF165. […]
Tumor size was measured by calipers immediately pre-treatment and at the time of sacrifice on Day 1, 2, or 3 (5 mice per group per day). […]

Data set [11] relates to HT1080 xenografts. Kind of data set: BrdU labeling of tumor cells from HT1080 xenografts in nude mice. Type of data set: in vivo, athymic nude mice. The conditions noted are these: Days 1-3; Compound #10 10 mg/kg oral QD, doxorubicin, bevacizumab. On the procedure: as §3
The mice were sacrificed 3 hours later, and the tumors collected. A single cell suspension was prepared from the tumor cells. The cells were permeabilized and an antibody to BrdU was used to stain cells that had entered S phase during the labeling period. The proportion of cells actively synthesizing DNA was determined by cell sorting.

The subject of data set [12] is soluble VEGF121 and VEGF165. Description: Inhibition of soluble VEGF production in human tumor cell lines, ELISA EC50 (Table 4). Type of data set: cell-based. The following applies: tumor cells, data not shown. Here is the method: Study Design. […] In these experiments, cultures were established under normoxic conditions (21% oxygen). […] Cells requiring induction of VEGF production were incubated under hypoxic conditions (1% oxygen). At the completion of treatment, the conditioned media were collected and assayed by ELISA (as described in Section 9.1.1.1) for soluble VEGF121 and VEGF165 isoforms; results were calculated as percentage inhibition relative to vehicle treated controls. EC50 values were calculated from the dose concentration response curves.

The next data set relates to HT1080 cells. Kind of data set: Cell cycle analysis in HT1080 cells, propidium iodide flow cytometry (Table 24; reversibility). Type of data set: cell-based, human. The conditions noted are these: tumor cells, data not shown. On the procedure:
Experimental Design. […] After treatment, cells were trypsinized, and stained with propidium iodide (PI) dye to measure DNA content of individual cells by flow cytometry. Output comprised histograms showing relative DNA content in 10,000 cells.
While compounds which cause greater than 20% of the cells to accumulate in S-phase at 100 nM are considered active, a larger percentage of cells may be accumulated in S-phase at lower doses depending on the Compound, as shown in FIG. 12 for example.

The mark [13] stands for this setting: both sexes, 0.3 mg/kg, Stage 1, 0.3 mg/kg BID, Day 1, mean.
[14] abbreviates: both sexes, 0.3 mg/kg, Stage 1, 0.3 mg/kg BID, Day 7, mean.
Where [15] appears, read: both sexes, 0.6 mg/kg, Stage 1, 0.6 mg/kg BID, Day 1, mean.

With `COc1ccc([C@H]2c3[nH]c4ccc(Cl)cc4c3CCN2C(=O)Oc2ccc(Cl)cc2)cc1` (racemic) [Compound #10], the concentration at 24 h is 94 ng/mL in [1] (both sexes, 0.3 mg/kg BID, Stage 1, 0.3 mg/kg BID, Day 1, mean); 210 ng/mL in data set [1] (both sexes, 0.3 mg/kg BID, Stage 1, 0.3 mg/kg BID, Day 7, mean); 260 ng/mL in data set [1] (both sexes, 0.6 mg/kg BID, Stage 1, 0.6 mg/kg BID, Day 1, mean); 540 ng/mL in [1] (both sexes, 0.6 mg/kg BID, Stage 1, 0.6 mg/kg BID, Day 7, mean); 100 to 150 ng/mL in data set [5]. Besides, the AUC(0-t) in data set [1] (setting [13]) turned out to be 4310 ng·h/mL; in [1] (setting [14]), 8440 ng·h/mL; in [1] (setting [15]), 10100 ng·h/mL; in [1] (both sexes, Stage 1, 0.6 mg/kg BID, Day 7, mean), 18600 ng·h/mL. For the same compound, the Cmax in data set [1] (setting [13]) turned out to be 480 ng/mL; in data set [1] (setting [14]), 590 ng/mL; in data set [1] (setting [15]) it was 970 ng/mL; in [1] (both sexes, 0.6 mg/kg, Stage 1, 0.6 mg/kg BID, Day 7, mean), 1160 ng/mL. For the same compound, the Tmax in [1] (both sexes, 0.3 mg/kg, Stage 1, 0.3 mg/kg BID, Day 1, mean, read-out: Tmax (after PM dose)) is 3.16 h; in data set [1] (both sexes, 0.6 mg/kg, Stage 1, 0.6 mg/kg BID, Day 1, mean, read-out: Tmax (after PM dose)) it was 3.17 h; in data set [1] (both sexes, Stage 1 and Stage 2, read-out: Mean Tmax), around 3 h; in data set [1] (both, […], Stage 2, […] TID, Day 1, mean, read-out: Tmax (after PM dose)), 2.5 h; in data set [1] (both, Stage 1, 1.2 mg/kg BID, Day 1, mean, read-out: Tmax (after PM dose)), 3 h. Also, the no-observed-adverse-effect level (NOAEL) at 28 days came to 12 mg/kg/day in the data set “in vivo [2]” and 30 mg/kg/day in “in vivo [8]”. Moreover, the figures for the NOAEL at 7 days (in data set [3] (female rats); in data set [3] (male rats); in “in vivo [6]”) were 120 mg/kg/day, 40 mg/kg/day and 60 mg/kg/day, respectively. Besides, the NOAEL at 1 day in [4] turned out to be 100 mg/kg. The concentration at 16 h was 130 ng/mL in data set [7] (16 hours after the first day of dosing (n=3), read-out: Mean trough plasma concentration); 280 ng/mL in data set [7] (16 hours after the first day of dosing (n=3), read-out: Mean trough plasma concentration (value in brackets)); 820 ng/mL in data set [7] (16 hours after the last dose on Day 18 (n=4), read-out: Steady state mean trough plasma concentration).

Regarding `O=C(Oc1ccc(Cl)cc1)N1CCc2c([nH]c3ccc(Cl)cc23)[C@@H]1c1ccc(OCC[C@H](O)CO)cc1` [Compound 1205], the “Mean difference in tumor growth rate at the Day that the vehicle-treated tumors taken off study (%)” value in the data set on HT1080 xenografts [9] (Study 21, 3 mg/kg QD, Day 14) was 80%**; in the data set on HT1080 xenografts [9] (Study 22, 0.5 mg/kg QD, Day 11), 62%**; with HT1080 xenografts [9] (Study 22, 3 mg/kg QD, Day 11), 75%**; in the data set with HT1080 xenografts [9] (Study 23, 1 mg/kg QD, Day 14), 59%**; with HT1080 xenografts [9] (Study 24a, 10 mg/kg QD, Day 11) it was 76%**; in the data set on HT1080 xenografts [9] (Study 24b, 0.3 mg/kg QD, Day 15), 28% ^.

As for `Cn1nnc2c(C(N)=O)ncn2c1=O` [TEMODAR, temozolomide], the Median survival time in the data set with D245MG-PR cells is 86 days.

Turning to `COc1cccc2c1C(=O)c1c(O)c3c(c(O)c1C2=O)C[C@@](O)(C(=O)CO)C[C@@H]3O[C@H]1C[C@H](N)[C@H](O)[C@H](C)O1` [doxorubicin], the “Pathologic plasma human VEGF levels vs control” value in data set [10] is “numerically lower than in control animals by Day 1”. For the same compound, the “BrdU staining of tumor cells (fraction in S phase)” value with HT1080 xenografts [11] was “decreased the percentage of tumor cells staining with BrdU”.

Regarding `NC(Cn1ccc(=O)c(O)c1)C(=O)O` (centres unmarked) [mimosine], the VEGF production entry in data set [12] was “does not delay or prolong the cell cycle or reduce VEGF production”. For the same compound, the “Cell cycle delay or prolongation” value in the data set with HT1080 cells was “does not delay or prolong the cell cycle or reduce VEGF production”.
